Assay results as given in PubChem BioAssay (NCI).
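Compound exposure: 48 hours, 5 concentrations, 96-well plates. Here, GI50 denotes the concentration required for 50% inhibition of growth. TGI: total growth inhibition.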

Assays:
Test in all cases: growth of human tumour cells (NCI), 48 h
[1] = test system: ACHN renal
[2] = test system: K-562 leukemia
[3] = test system: TK-10 renal
[4] = test system: IGROV1 ovarian
[5] = test system: SK-MEL-28 melanoma
[6] = test system: UO-31 renal
[7] = test system: SF-539 CNS
[8] = test system: HOP-92 NSCLC
[9] = test system: SK-OV-3 ovarian
[10] = test system: SF-295 CNS
[11] = test system: MOLT-4 leukemia
[12] = test system: 786-0 renal
[13] = test system: M14 melanoma
[14] = test system: HT29 colon
[15] = test system: HOP-18 NSCLC
[16] = test system: LXFL 529 NSCLC
[17] = test system: NCI-H226 lung
[18] = test system: OVCAR-8 ovarian
[19] = test system: U251 CNS
[20] = test system: SN12C renal
[21] = test system: M19-MEL melanoma
[22] = test system: HCT-116 colon
[23] = test system: KM20L2 colon
[24] = test system: OVCAR-4 ovarian
[25] = test system: LOX IMVI melanoma
[26] = test system: NCI-H522 lung
[27] = test system: SF-268 CNS
[28] = test system: UACC-62 melanoma
[29] = test system: RPMI-8226 leukemia
[30] = test system: SK-MEL-5 melanoma
[31] = test system: UACC-257 melanoma
[32] = test system: CCRF-CEM leukemia
[33] = test system: A549 NSCLC
[34] = test system: NCI-H460 lung
[35] = test system: SNB-19 CNS
[36] = test system: RXF 393 renal
[37] = test system: KM12 colon
[38] = test system: HCC-2998 colon
[39] = test system: COLO 205 colon
[40] = test system: SW-620 colon
[41] = test system: CAKI-1 renal
[42] = test system: DLD-1 colon
[43] = test system: HOP-62 NSCLC
[44] = test system: OVCAR-5 ovarian
[45] = test system: EKVX NSCLC
[46] = test system: HL-60(TB) leukemia
[47] = test system: HCT-15 colon
[48] = test system: SK-MEL-2 melanoma
[49] = test system: NCI-H23 lung
[50] = test system: A498 renal
[51] = test system: MALME-3M melanoma
[52] = test system: OVCAR-3 ovarian
[53] = test system: SNB-75 CNS

CC(=O)[CH-]C(=O)c1ccccc1.CC(=O)[CH-]C(=O)c1ccccc1.CC(=O)[CH-]C(=O)c1ccccc1.[Tl+3]
GI50 [1]: 51.1 µM | TGI [1]: > 100 µM | GI50 [2]: 2.32 µM | TGI [2]: > 100 µM | GI50 [3]: > 59.2 µM | TGI [3]: > 100 µM | GI50 [4]: 24.5 µM | TGI [4]: > 68.6 µM | GI50 [5]: 74.3 µM | TGI [5]: > 100 µM | GI50 [6]: 30.2 µM | TGI [6]: > 100 µM | GI50 [7]: 36.9 µM | TGI [7]: > 100 µM | GI50 [8]: 40.6 µM | TGI [8]: > 85.7 µM | GI50 [9]: > 61.8 µM | TGI [9]: > 100 µM | GI50 [10]: 48.7 µM | TGI [10]: > 100 µM | GI50 [11]: 18.8 µM | TGI [11]: > 69.4 µM | GI50 [12]: 49.2 µM | TGI [12]: > 100 µM | GI50 [13]: 24.7 µM | TGI [13]: > 93 µM | GI50 [14]: 57.1 µM | TGI [14]: > 100 µM | GI50 [15]: > 100 µM | TGI [15]: > 100 µM | GI50 [16]: 56.2 µM | TGI [16]: > 100 µM | GI50 [17]: 35.7 µM | TGI [17]: > 100 µM | GI50 [18]: 59.3 µM | TGI [18]: > 100 µM | GI50 [19]: 42.6 µM | TGI [19]: > 100 µM | GI50 [20]: 72.6 µM | TGI [20]: > 100 µM | GI50 [21]: 38 µM | TGI [21]: > 100 µM | GI50 [22]: 28.2 µM | TGI [22]: > 100 µM | GI50 [23]: 45.6 µM | TGI [23]: > 100 µM | GI50 [24]: 26.1 µM | TGI [24]: > 100 µM | GI50 [25]: 42.7 µM | TGI [25]: > 100 µM | GI50 [26]: > 54.7 µM | TGI [26]: > 100 µM | GI50 [27]: 29.3 µM | TGI [27]: > 100 µM | GI50 [28]: 32 µM | TGI [28]: > 100 µM | GI50 [29]: 11.1 µM | TGI [29]: > 100 µM | GI50 [30]: 24.4 µM | TGI [30]: > 66.8 µM | GI50 [31]: 26.3 µM | TGI [31]: 82.7 µM | GI50 [32]: 6.81 µM | TGI [32]: 30.9 µM | GI50 [33]: 42.1 µM | TGI [33]: > 100 µM | GI50 [34]: 22.6 µM | TGI [34]: > 100 µM | GI50 [35]: 95.2 µM | TGI [35]: > 100 µM | GI50 [36]: 56.2 µM | TGI [36]: > 100 µM | GI50 [37]: 42.8 µM | TGI [37]: > 100 µM | GI50 [38]: 37.5 µM | TGI [38]: > 100 µM | GI50 [39]: 25.9 µM | TGI [39]: 97.7 µM | GI50 [40]: 57.5 µM | TGI [40]: > 100 µM | GI50 [41]: 75 µM | TGI [41]: > 100 µM | GI50 [42]: 22.2 µM | TGI [42]: > 100 µM | GI50 [43]: 33.5 µM | TGI [43]: 99.9 µM | GI50 [44]: > 100 µM | TGI [44]: > 100 µM | GI50 [45]: 31.8 µM | TGI [45]: > 100 µM | GI50 [46]: 4.83 µM | TGI [46]: 16.9 µM | GI50 [47]: 41.7 µM | TGI [47]: > 100 µM | GI50 [48]: 15.7 µM | TGI [48]: > 100 µM | GI50 [49]: 45.4 µM | TGI [49]: > 100 µM | GI50 [50]: > 100 µM | TGI [50]: > 100 µM | GI50 [51]: 20.2 µM | TGI [51]: 49.2 µM | GI50 [52]: 24.1 µM | TGI [52]: > 75.5 µM | GI50 [53]: 48.1 µM | TGI [53]: > 100 µM
